In patent publication US8445461B2, “Pharmaceutical composition for meniere's disease” (Setsuko Takeda, priority 2007, dated 2013):

Assays:
[1] = tested on: experimental endolymphatic hydrops; test: Endolymphatic hydrops decompression effect: IR-L, IR-S and regression lines in the operated ear; assay type: in vivo, guinea pigs; details: for Regression line IR-S vs IR-L: Y-intercept / Regression line IR-S vs IR-L: slope: operated ears; for Regression line IR-S vs IR-L: Y-intercept / Regression line IR-S vs IR-L: slope / IR-L (%) increase ratio of the length of Reissner's membrane / IR-S (%) increase ratio of the cross-sectional area of the scala media: active agent 2.8 g/kg oral; for IR-L (%) increase ratio of the length of Reissner's membrane / IR-S (%) increase ratio of the cross-sectional area of the scala media: operated side
Protocol: The endolymphatic hydrops-decompression effect of saccharides or sugar alcohols was evaluated by assaying as below in triplicate. Firstly, guinea pigs received the surgical obliteration of the endolymphatic sac in the left ear to prepare “experimental model animals with endolymphatic hydrops”. The surgical obliteration of the endolymphatic sac was carried out by burning the extraskeletal portion in the endolymphatic sac with a bipolar electrocoagulator. An endolymphatic sac plays an important role in the absorption of endolymphatic fluid. The inhibition of absorption of endolymphatic fluid was caused by burning the endolymphatic sac to prepare an experimental endolymphatic hydrops. Those hydrops are progressively formed. The size of hydrops becomes constant 2 weeks to month after the surgery and maintained for several months. In detail, see Non-patent Reference 8 for the surgery.
After 1 month, they were divided into 3 groups: Group 2-1 (groups 1-6), 60 animals; Group 2-2 (groups 7-10), 40 animals; and Group 2-3 (groups 11-20), […]. The animals in Group 2-1 received saccharides or sugar alcohols alone (Reference Example 5). The animals in Group 2-2 orally received saccharides or sugar alcohols added polysaccharides. The animals in Group 2-3 received other combinations of saccharides or sugar alcohols added polysaccharides. Animals were sacrificed after the oral administration and the observation and the assessment the gastrointestinal condition, and observed the morphological change of the cochlea mainly in the operated side (left side), in particular of the endolymphatic hydrops decompression effect.
I were obtained left sides of the temporal bones immediately following fixation and kept them in 10% formalin solution for 10 days or more. They were decalcified with 5% trichloroacetic acid and dehydrated with alcohol in increasing concentration, then embedded in paraffin and celloidin. The prepared blocks were cut serially in the horizontal plane. The mid-modiolar sections were stained in hematoxylin and eosin and studied under a light microscope. For the quantitative assessment of changes of the endolymphatic space, the change ratios of the length of Reissner's membrane and the cross-sectional area of the scala media in each turn were measured from the mid-modiolar sections of the cochlea.
From these parameters, the increase ratios (%) of the length of Reissner's membrane (IR-L) and the cross-sectional area (%) of the scala media (IR-S) of a total of four turns were calculated according to the equation as described below:
The increase ratio of the length of Reissner's membrane (IR-L)=100×Σ(Lx−L*x)/ΣL*x (x: first, second, third and fourth turns)
The increase ratio of the cross-section area of the scala media (IR-S)=100×Σ(Sx−S*x)/ΣS*x (x: first, second, third and fourth turns)
Since almost no difference is shown in the regression lines of each group, it cannot be understood that there is the decompression effect of erythritol alone. When endolymphatic hydrops is formed, the cross-sectional area of scala media and the length of Reissner's membrane will increase. It can be assumed from FIG. 1 that there is statistically a primary correlation between both of them in the operated side in the control group. The regression lines are; IR-S (distilled water)=4.011+1.212*IR-L (distilled water); R2=0.987, IR-S (1 hour after)=5.409+1.1*IR-L (1 hour after); R2=0.903, IR-S (2 hours after)=1.125+0.992*IR-L (2 hours after); R2=0.98, IR-S (3 hours after)=2.407+1.309*IR-L (3 hours after); R2=0.974, IR-S (6 hours after)=7.36+1.147*IR-L (6 hours after); R2=0.895, IR-S (12 hours after)=8.089+1.152*IR-L (12 hours after); R2=0.918.
The difference of decompression effect on endolymphatic hydrops depending on dose of pectin added and time-course of the decompression effect can hardly determined by comparing and analyzing the average and standard deviation of IR-L and IR-S in the operated side in each groups. […]

guinea pigs = test: Reference Example 7: erythritol or isosorbitol added jelly, conditions of feces and gastrointestinal tract; assay type: in vivo
From the text: As described hereinbefore, erythritol or isosorbitol as saccharides or sugar alcohols added jelly as a thickner were orally administered to 10 guinea pigs (280 to 350 g body weight) as shown in Table 41. The conditions of feces were observed.

[2] = Volume of agent: volume, weight and particle size of formulations (Example 4); assay type: physicochemical; details: 21 g of erythritol
Protocol: When erythritol is administered to an adult (60 kg body weight), the single dose may be 10 to 80 g, preferably 20 to 60 g. When 21 g of erythritol is administered as powder, the volume may be about 53 ml. Alternatively, administered as saturated aqueous solution, it requires 65 ml of distilled water, and volume and weight thereof is 78 ml and 86 g, respectively. Carrying it to administer 3 times daily is inconvenient for a patient with Meniere's disease.
(§1) The volume of this gel formulation is 20.25 ml and the weight thereof is 36 g. By drying and grinding this gel formulation, the volume increases to 33 ml, however it is convenient for carrying. The particle size of dry milled powder is described in Table 44. If water (10 ml) is added thereto prior to use and mixed, a gel formulation (23 ml) is again obtained.
as §1, with “26.1” for “36”, “31.5 ml.” for “33 ml, however it is convenient for carrying.”, “(3” for “(10”, “(24” for “(23”

[3] = alone or with additive, 3 hours after
[4] = alone or with additive, 6 hours after
[5] = alone or with additive, 12 hours after
[6] = alone or with additive, perfusion 3 hours after
[7] = alone or with additive, perfusion 6 hours after
[8] = alone or with additive, perfusion 12 hours after
[9] = agent 2.8 g/kg oral + Jelly 0.05 g/kg, 5 animals
[10] = agent 2.8 g/kg oral + Jelly 0.1 g/kg, 5 animals
[11] = agent 2.8 g/kg oral + Jelly 0.15 g/kg, 5 animals
[12] = agent 2.8 g/kg oral, no additive dosage (agent alone)

Hardness of feces: Muddy (number of animals) (guinea pigs; [9]): 5
Hardness of feces: Normal (number of animals) (guinea pigs; [9]): 0
Hardness of feces: Slightly soft (number of animals) (guinea pigs; [9]): 0
Hardness of feces: Soft (number of animals) (guinea pigs; [9]): 0
Hardness of feces: Muddy (number of animals) (guinea pigs; [10]): 5
Hardness of feces: Normal (number of animals) (guinea pigs; [10]): 0
Hardness of feces: Slightly soft (number of animals) (guinea pigs; [10]): 0
Hardness of feces: Soft (number of animals) (guinea pigs; [10]): 0
Hardness of feces: Muddy (number of animals) (guinea pigs; [11]): 5
Hardness of feces: Normal (number of animals) (guinea pigs; [11]): 0
Hardness of feces: Slightly soft (number of animals) (guinea pigs; [11]): 0
Hardness of feces: Soft (number of animals) (guinea pigs; [11]): 0
Hardness of feces: Muddy (number of animals) (guinea pigs; [12]): 5
Hardness of feces: Normal (number of animals) (guinea pigs; [12]): 0
Hardness of feces: Slightly soft (number of animals) (guinea pigs; [12]): 0
Hardness of feces: Soft (number of animals) (guinea pigs; [12]): 0
Distilled water required for saturated aqueous solution [2]: 65 mL
Volume as powder [2]: about 53 ml
Volume of saturated aqueous solution [2]: 78 mL
Weight of saturated aqueous solution [2]: 86 g
Structure (SMILES): OC[C@@H](O)[C@@H](O)CO [Erythritol, erythritol]
Difference of regression lines from control (ANCOVA test) ([1]; erythritol 2.8 g/kg alone, E1H to E12H groups (1 to 12 hours after)): no significant difference
Regression line IR-S vs IR-L: Y-intercept [1, 3]: 2.407
Regression line IR-S vs IR-L: slope [1, 3]: 1.309
Regression line IR-S vs IR-L: Y-intercept [1, 4]: 7.36
Regression line IR-S vs IR-L: slope [1, 4]: 1.147
Regression line IR-S vs IR-L: Y-intercept [1, 5]: 8.089
Regression line IR-S vs IR-L: slope [1, 5]: 1.152
Regression line IR-S vs IR-L: Y-intercept ([1]; 1 hour after): 5.409
Regression line IR-S vs IR-L: slope ([1]; 1 hour after): 1.1
Regression line IR-S vs IR-L: Y-intercept ([1]; 2 hours after): 1.125
Regression line IR-S vs IR-L: slope ([1]; 2 hours after): 0.992
IR-L (%) increase ratio of the length of Reissner's membrane [1, 6]: 23.2 ± 16.9%
IR-S (%) increase ratio of the cross-sectional area of the scala media [1, 6]: 32.7 ± 22.4%
IR-L (%) increase ratio of the length of Reissner's membrane [1, 7]: 37.8 ± 24.8%
IR-S (%) increase ratio of the cross-sectional area of the scala media [1, 7]: 51.4 ± 38.1%
IR-L (%) increase ratio of the length of Reissner's membrane [1, 8]: 37.5 ± 18.7%
IR-S (%) increase ratio of the cross-sectional area of the scala media [1, 8]: 51.4 ± 22.5%
IR-L (%) increase ratio of the length of Reissner's membrane ([1]; perfusion 1 hour after): 24.2 ± 20.2%
IR-S (%) increase ratio of the cross-sectional area of the scala media ([1]; perfusion 1 hour after): 32.1 ± 23.3%
IR-L (%) increase ratio of the length of Reissner's membrane ([1]; perfusion 2 hours after): 29.4 ± 25.5%
IR-S (%) increase ratio of the cross-sectional area of the scala media ([1]; perfusion 2 hours after): 30.2 ± 26.3%
